Values of other authors as cited in patent publication US20050095265A1, “Process for making larvicidal evaporation suppressant powder” (priority 2002, published 2005).

CCCCCCCCCCCCCCCCO [cetyl alcohol, n-hexadecanol]
larvicidal effect (Culex quinquefasciatus; film-forming compound on water surface, Culex quinquefasciatus larvae): no larvicidal effect
effect on larvae of feeding on particles floating on the water surface (Culex quinquefasciatus; particles on water surface of test units, apparently fed upon by mosquito larvae): no ill effect
influence on aquatic larvae (Anopheles gambiae): no appreciable influence

CCCCCCCCCCCCO [lauryl alcohol, dodecanol]
mosquito larvae mortality (Culex quinquefasciatus; as reported by Lorenzen and Meinke): cause mosquito larvae mortality
